Source: PubChem BioAssay (NCI)
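Cultured in 96-well plates, cells were exposed to test compound for 48 hours across five concentrations. TGI denotes the concentration required for complete inhibition of growth.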

How the values were obtained:
Assay in all cases: inhibition of tumour cell growth, NCI panel, 48 h
A549 NSCLC = test system: A549 NSCLC
ACHN renal = test system: ACHN renal
BT-549 breast = test system: BT-549 breast
CAKI-1 renal = test system: CAKI-1 renal
CCRF-CEM leukemia = test system: CCRF-CEM leukemia
COLO 205 colon = test system: COLO 205 colon
DU-145 prostate = test system: DU-145 prostate
EKVX NSCLC = test system: EKVX NSCLC
HCC-2998 colon = test system: HCC-2998 colon
HCT-116 colon = test system: HCT-116 colon
HCT-15 colon = test system: HCT-15 colon
HL-60(TB) leukemia = test system: HL-60(TB) leukemia
HOP-92 NSCLC = test system: HOP-92 NSCLC
HS 578T breast = test system: HS 578T breast
HT29 colon = test system: HT29 colon
IGROV1 ovarian = test system: IGROV1 ovarian
KM12 colon = test system: KM12 colon
LOX IMVI melanoma = test system: LOX IMVI melanoma
M14 melanoma = test system: M14 melanoma
MCF7 breast = test system: MCF7 breast
MDA-MB-231 breast = test system: MDA-MB-231 breast
MDA-MB-435 = test system: MDA-MB-435
MDA-N = test system: MDA-N
MOLT-4 leukemia = test system: MOLT-4 leukemia
NCI-H23 lung = test system: NCI-H23 lung
NCI-H460 lung = test system: NCI-H460 lung
NCI-H522 lung = test system: NCI-H522 lung
NCI/ADR-RES ovarian = test system: NCI/ADR-RES ovarian
OVCAR-3 ovarian = test system: OVCAR-3 ovarian
OVCAR-4 ovarian = test system: OVCAR-4 ovarian
OVCAR-5 ovarian = test system: OVCAR-5 ovarian
OVCAR-8 ovarian = test system: OVCAR-8 ovarian
PC-3 prostate = test system: PC-3 prostate
RPMI-8226 leukemia = test system: RPMI-8226 leukemia
RXF 393 renal = test system: RXF 393 renal
SF-268 CNS = test system: SF-268 CNS
SF-295 CNS = test system: SF-295 CNS
SF-539 CNS = test system: SF-539 CNS
SK-MEL-2 melanoma = test system: SK-MEL-2 melanoma
SK-MEL-28 melanoma = test system: SK-MEL-28 melanoma
SK-MEL-5 melanoma = test system: SK-MEL-5 melanoma
SK-OV-3 ovarian = test system: SK-OV-3 ovarian
SN12C renal = test system: SN12C renal
SNB-19 CNS = test system: SNB-19 CNS
SNB-75 CNS = test system: SNB-75 CNS
SR leukemia = test system: SR leukemia
SW-620 colon = test system: SW-620 colon
T-47D breast = test system: T-47D breast
TK-10 renal = test system: TK-10 renal
U251 CNS = test system: U251 CNS
UACC-257 melanoma = test system: UACC-257 melanoma
UACC-62 melanoma = test system: UACC-62 melanoma
UO-31 renal = test system: UO-31 renal
786-0 renal = test system: 786-0 renal
HOP-62 NSCLC = test system: HOP-62 NSCLC
K-562 leukemia = test system: K-562 leukemia
MALME-3M melanoma = test system: MALME-3M melanoma
NCI-H226 lung = test system: NCI-H226 lung

Measured: TGI

CCOC1=NC(C(F)(F)F)(C(F)(F)F)N=C(N2CCOCC2)O1
> 100 µM: A549 NSCLC | ACHN renal | BT-549 breast | CAKI-1 renal | CCRF-CEM leukemia | COLO 205 colon | DU-145 prostate | EKVX NSCLC | HCC-2998 colon | HCT-116 colon | HCT-15 colon | HL-60(TB) leukemia | HOP-92 NSCLC | HS 578T breast | HT29 colon | IGROV1 ovarian | KM12 colon | LOX IMVI melanoma | M14 melanoma | MCF7 breast | MDA-MB-231 breast | MDA-MB-435 | MDA-N | MOLT-4 leukemia | NCI-H23 lung | NCI-H460 lung | NCI-H522 lung | NCI/ADR-RES ovarian | OVCAR-3 ovarian | OVCAR-4 ovarian | OVCAR-5 ovarian | OVCAR-8 ovarian | PC-3 prostate | RPMI-8226 leukemia | RXF 393 renal | SF-268 CNS | SF-295 CNS | SF-539 CNS | SK-MEL-2 melanoma | SK-MEL-28 melanoma | SK-MEL-5 melanoma | SK-OV-3 ovarian | SN12C renal | SNB-19 CNS | SNB-75 CNS | SR leukemia | SW-620 colon | T-47D breast | TK-10 renal | U251 CNS | UACC-257 melanoma | UACC-62 melanoma | UO-31 renal

COc1ccc(N=C2S/C(=N\C(=Nc3ccccc3)SCc3ccccc3)N(c3ccccc3)C2=Nc2ccc(OC)cc2)cc1
> 100 µM: 786-0 renal | A549 NSCLC | BT-549 breast | CCRF-CEM leukemia | COLO 205 colon | EKVX NSCLC | HCC-2998 colon | HCT-116 colon | HCT-15 colon | HL-60(TB) leukemia | HOP-62 NSCLC | HOP-92 NSCLC | HS 578T breast | HT29 colon | IGROV1 ovarian | K-562 leukemia | KM12 colon | M14 melanoma | MALME-3M melanoma | MCF7 breast | MDA-MB-231 breast | MDA-N | MOLT-4 leukemia | NCI-H226 lung | NCI-H23 lung | OVCAR-8 ovarian | PC-3 prostate | RPMI-8226 leukemia | RXF 393 renal | SK-MEL-2 melanoma | SK-MEL-28 melanoma | SK-MEL-5 melanoma | SN12C renal | SNB-19 CNS | SNB-75 CNS | SR leukemia | SW-620 colon | T-47D breast | TK-10 renal | UACC-257 melanoma | UACC-62 melanoma | UO-31 renal
